Measurements taken from patent US11298363B2, “Triazolobenzazepines as vasopressin V1a receptor antagonists” (RICHTER GEDEON NYRT., priority 2017, dated 2022).
One block for each compound: values may come before it.

Assays:
[1] = molecular target: T1, human vasopressin V1a receptor (Homo sapiens, UniProt P37288); test: Human vasopressin V1a receptor binding assay; conditions: 1321N1 cell membranes, [3H]vasopressin; read-out: Ki (nM) on hV1a cell line
Method in brief: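 Radioligand competition on membranes from cells expressing human V1a receptor; incubation 60 minutes at 27° C., non-specific binding with 1.2×10^−6 M unlabeled (Arg^8)-vasopressin, filtration separation. Ki by Cheng-Prusoff using Scatchard-derived KD, from at least two independent experiments.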

[2] = molecular target: T1, human vasopressin V1a receptor; test: Functional assay on human vasopressin V1a receptor expressing cell line (intracellular Ca2+ fluorescence); format: cell-based; conditions: 1321N1 cells, (Arg8)-vasopressin at EC80; read-out: IC50 (nM) on hV1a cell line

T1 sequence (P37288 whole entry): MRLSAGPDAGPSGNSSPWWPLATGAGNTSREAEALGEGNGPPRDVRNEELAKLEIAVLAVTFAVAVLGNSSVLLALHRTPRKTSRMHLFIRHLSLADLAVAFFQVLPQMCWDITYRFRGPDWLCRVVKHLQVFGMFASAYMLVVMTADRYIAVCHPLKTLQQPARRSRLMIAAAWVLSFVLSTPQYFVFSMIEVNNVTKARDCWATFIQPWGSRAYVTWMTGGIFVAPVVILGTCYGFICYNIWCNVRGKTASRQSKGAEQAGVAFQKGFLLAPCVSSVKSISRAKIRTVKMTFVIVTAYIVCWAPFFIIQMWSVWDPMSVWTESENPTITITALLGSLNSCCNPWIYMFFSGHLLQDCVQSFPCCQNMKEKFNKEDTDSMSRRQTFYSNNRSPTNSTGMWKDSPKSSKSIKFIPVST

Structure (SMILES): CC(C)(C)C(=O)N[C@H]1Cc2cc(Cl)ccc2-n2c(nnc2[C@H]2CC[C@H](Oc3ccccn3)CC2)C1 [Example 118]
Ki [1]: 66 nM
IC50 [2]: 251 nM

Structure (SMILES): O=C(N[C@H]1Cc2cc(Cl)ccc2-n2c(nnc2[C@H]2CC[C@H](Oc3ccccn3)CC2)C1)C1CC1 [Example 119, N-{(5S)-8-chloro-1-[trans-4-(pyridin-2-yloxy)cyclohexyl]-5,6-dihydro-4H-[1,2,4]triazolo[4,3-a][1]benzazepin-5-yl}cyclopropanecarboxamide]
Ki [1]: 27 nM
IC50 [2]: 111 nM

Structure (SMILES): CC(C)C(=O)N[C@H]1Cc2cc(Cl)ccc2-n2c(nnc2[C@H]2CC[C@H](Oc3ccccn3)CC2)C1 [Example 120, N-{(5S)-8-chloro-1-[trans-4-(pyridin-2-yloxy)cyclohexyl]-5,6-dihydro-4H-[1,2,4]triazolo[4,3-a][1]benzazepin-5-yl}-2-methylpropanamide]
Ki [1]: 52 nM
IC50 [2]: 465 nM

Structure (SMILES): O=C(N[C@H]1Cc2cc(Cl)ccc2-n2c(nnc2[C@H]2CC[C@H](Oc3ccccn3)CC2)C1)C1CCC1 [Example 121, N-{(5S)-8-chloro-1-[trans-4-(pyridin-2-yloxy)cyclohexyl]-5,6-dihydro-4H-[1,2,4]triazolo[4,3-a][1]benzazepin-5-yl}cyclobutanecarboxamide]
Ki [1]: 79 nM
IC50 [2]: 442 nM

Structure (SMILES): Clc1ccc2c(c1)C[C@H](N1CCOCC1)Cc1nnc([C@H]3CC[C@H](Oc4ccccn4)CC3)n1-2 [Example 122, (5S)-8-chloro-5-(morpholin-4-yl)-1-[trans-4-(pyridin-2-yloxy)cyclohexyl]-5,6-dihydro-4H-[1,2,4]triazolo[4,3-a][1]benzazepine]
Ki [1]: 3 nM
IC50 [2]: 14 nM

Structure (SMILES): CC(C)(C)C(=O)N[C@@H]1Cc2cc(Cl)ccc2-n2c(nnc2[C@H]2CC[C@H](Oc3ccccn3)CC2)C1 [Example 123, N-{(5R)-8-chloro-1-[trans-4-(pyridin-2-yloxy)cyclohexyl]-5,6-dihydro-4H-[2,4]triazolo[4,3-a][1]benzazepin-5-yl}-2,2-dimethylpropanamide]
Ki [1]: 2.1 nM
IC50 [2]: 6.3 nM

Structure (SMILES): Clc1ccc2c(c1)C[C@H](N1CCCCC1)Cc1nnc([C@H]3CC[C@H](Oc4ccccn4)CC3)n1-2 [Example 127, (5S)-8-chloro-5-(piperidin-1-yl)-1-[trans-4-(pyridin-2-yloxy)cyclohexyl]-5,6-dihydro-4H-[1,2,4]triazolo[4,3-a][1]benzazepine]
Ki [1]: 2.8 nM
IC50 [2]: 17 nM

Structure (SMILES): CCC(C)N[C@H]1Cc2cc(Cl)ccc2-n2c(nnc2[C@H]2CC[C@H](Oc3ccccn3)CC2)C1 (stereo partly drawn) [Example 128]
Ki [1]: 2 nM
IC50 [2]: 14 nM

Now those with a lower Ki [1], led by results:

Ki [1]: 0.7 nM
IC50 [2]: 2.1 nM
Structure (SMILES): CC(C)N1CC[C@]2(CC[C@@H](c3nnc4n3-c3ccc(Cl)cc3CC(O)C4)CC2)C1=O (stereo partly drawn) [Example 116, (5r,8r)-8-(8-chloro-5-hydroxy-5,6-dihydro-4H-[1,2,4]triazolo[4,3-a][1]benzazepin-1-yl)-2-(propan-2-yl)-2-azaspiro[4,5]decan-1-one]

Ki [1]: 0.9 nM
IC50 [2]: 4.3 nM
Structure (SMILES): Clc1ccc2c(c1)C[C@H](N1CCCC1)Cc1nnc([C@H]3CC[C@H](Oc4ccccn4)CC3)n1-2 [Example 117, (5S)-8-chloro-1-[trans-4-pyridin-2-loxcyclohexyl]-5-(pyrrolidin-1-yl)-5,6-dihydro-4H-[1,2,4]triazolo[4,3-a][1]benzazepine]

Ki [1]: 1.7 nM
IC50 [2]: 5.1 nM
Structure (SMILES): CC(C)C(=O)N[C@@H]1Cc2cc(Cl)ccc2-n2c(nnc2[C@H]2CC[C@H](Oc3ccccn3)CC2)C1 [Example 124, N-{(5R)-8-chloro-1-[trans-4-(pyridin-2-yloxy)cyclohexyl]-5,6-dihydro-4H-[1,2,4]triazolo[4,3-a][1]benzazepin-5-yl}-2-methylpropanamide]

Ki [1]: 0.8 nM
IC50 [2]: 2.3 nM
Structure (SMILES): O=C(N[C@@H]1Cc2cc(Cl)ccc2-n2c(nnc2[C@H]2CC[C@H](Oc3ccccn3)CC2)C1)C1CCC1 [Example 125, N-{(5R)-8-chloro-1-[trans-4-(pyridin-2-yloxy)cyclohexyl]-5,6-dihydro-4H-[1,2,4]triazolo[4,3-a][1]benzazepin-5-yl}cyclobutanecarboxamide]
